ChEMBL document CHEMBL1146455, “New geranyl stilbenes from Dalea purpurea with in vitro opioid receptor affinity” (J Nat Prod, 2004)

Assay: Displacement of [3H]naloxone from opioid receptor in Sprague-Dawley rat striatal membrane by scintillation spectrophotometry
Parameters: species or system Striatum

CC(C)=CCCC1(C)C=Cc2c(O)cc(/C=C/c3ccc(O)c(O)c3)cc2O1 (centres undefined) [PAWHUSKIN B]
Ki: 11.4 µM

CC(C)=CCC/C(C)=C/Cc1c(O)cc(O)cc1/C=C/c1ccc(O)c(O)c1CC=C(C)C [PAWHUSKIN A]
Ki: 0.29 µM

CC(C)=CCc1cc(O)c(O)c(CC=C(C)C)c1[C@H]1Oc2c(CC=C(C)C)c(O)cc(O)c2C(=O)[C@@H]1O [PETALOSTEMUMOL]
Ki: > 100 µM

CC(C)=CCC/C(C)=C/Cc1c(O)cc(/C=C/c2ccc(O)c(O)c2)cc1O [PAWHUSKIN C]
Ki: 4.2 µM
